Read-outs that look alike come from different tables or passages of the source.
Experiments:
[1] = target: T1, triton-extracted alpha-synuclein from PD Tissue (Homo sapiens, UniProt P37840); test: Alpha-synuclein tissue homogenate binding assay (Assay 1), displacement of [^3H]-1000; conditions: for Selectivity ratio (Assay 2/Assay 1): Aβ Tissue Ki / α-synuclein Tissue Ki; for Ki: read-out: α-synuclein Tissue Ki (Assay 1)
T1 construct: tissue Analytic Biological Services Inc; host or cells: human PD temporal cortex grey matter, Triton X-100 insoluble pellet

[2] = target: aggregated beta amyloid in AD tissue (Homo sapiens, UniProt P05067); test: Competitive radioligand binding to pathological aggregated beta amyloid in AD tissue (Assay 2), displacement of [^3H]-105; conditions: Aβ-rich AD frontal cortex homogenate, [^3H]-105, Kd 11.0 nM
Experimental: Frozen human brain samples of Alzheimer's disease (AD) were purchased from Analytic Biological Services Inc. The samples were post-mortem tissue from donors with clinical diagnosis of AD and much of the white matter was dissected out of the frontal cortex in order to enrich the tissue preparations for gray matter. Brain homogenates of gray matter enriched frontal cortex were prepared by homogenizing the tissue in ice cold Phosphate Buffered Saline (PBS), pH 7.4 at 80 mg wet weight tissue per 1 ml for 45 seconds at 4° C., on setting 16 of Polytron. The homogenate was further diluted with ice cold PBS to 30 mg wet weight tissue per 1 ml and homogenized for an additional minute as described above. Homogenates were aliquoted in 5 ml/tube and stored at −70° C. until use.
Radioligand [^3H]-105, prepared as described in ACS Med. Chem. Lett., Vol. 2, pages 498-502, was used in this assay.
For Assay 2 unlabeled test compounds were dissolved in DMSO at 10 mM. Dilutions of tests compounds to various concentrations were made in 100% DMSO at 1000× final assay concentration and 0.225 μl aliquots were dispensed into assay plates. Brain homogenates were diluted to 0.5 mg/ml from original 30 mg/ml volume in Assay Buffer, and 200 μl were added to the assay plate for a final concentration of 100 ug wet weight/assay well. [^3H]-105 was prepared at 10× final concentration in Assay Buffer plus 20% DMSO and 25 μl was added to the assay plate for final assay concentration of 3.0 nM. The plates were incubated at 37° C. for 90 minutes. Unbound and bound ligand were separated by filtration of bound onto GF/B filter plates (pre-treated for 30 min with 0.1% PEI) using a Packard Filtermate and washing away unbound with 2.5 mil ice cold 5 mM Tris at pH 7.4. Filter plates were dried for 1 hr at 57° C. and 50 μl Microscint was added to each well of the plate. The plates were counted for ^3H cpm for 1 min per well using PerkinElmer TopCount.

[3] = insoluble fraction of PD brain homogenate, [^3H]-1000 3.0 nM, Kd 0.90 nM

Sequence of aggregated beta amyloid in AD tissue (P05067 672-711 limits assumed): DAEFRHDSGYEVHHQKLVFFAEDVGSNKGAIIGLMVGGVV

| Selectivity ratio (Assay 2/Assay 1) [1] | Ki [1, 3] [nM] | Ki [2] [nM] | Ki [1] [nM] | SMILES |
| --- | --- | --- | --- | --- |
| 12000 | 1 | ≥ 12000 |  | OC[C@H]1CN(c2cc(F)ncn2)CCN1c1ncc(/C=C/c2ccc(-n3ccnc3)nc2)cn1 [Example 15, (R,E)-(1-(5-(2-(6-(1H-imidazol-1-yl)pyridin-3-yl)vinyl)pyrimidin-2-yl)-4-(6-fluoropyrimidin-4-yl)piperazin-2-yl)methanol] |
| 13333 |  | ≥ 12000 |  | COC[C@H]1CN(c2cc(F)ccn2)CCN1c1ncc(/C=C/c2ccc(-n3ccnc3)nc2)cn1 [Example 17, (R,E)-5-(2-(6-(1H-imidazol-1-yl)pyridin-3-yl)vinyl)-2-(4-(4-fluoropyridin-2-yl)-2-(methoxymethyl)piperazin-1-yl)pyrimidine] |
| 24000 | 0.5 | ≥ 12000 |  | COC[C@H]1CN(c2ccccn2)CCN1c1ncc(/C=C/c2ccc(-n3ccnc3)nc2)cn1 [Example 18, (R,E)-5-(2-(6-(1H-imidazol-1-yl)pyridin-3-yl)vinyl)-2-(2-(methoxymethyl)-4-(pyridin-2-yl)piperazin-1-yl)pyrimidine] |
| 1857 | 0.7 | 1300 |  | COC[C@H]1CN(c2ncc(/C=C/c3ccc(-n4ccnc4)nc3)cn2)CCN1c1ccccn1 [Example 22, (R,E)-5-(2-(6-(1H-imidazol-1-yl)pyridin-3-yl)vinyl)-2-(3-(methoxymethyl)-4-(pyridin-2-yl)piperazin-1-yl)pyrimidine] |
| 10000 |  | ≥ 12000 | 1.2 | OC[C@H]1CN(c2cnccn2)CCN1c1ncc(/C=C/c2ccc(-n3ccnc3)nc2)cn1 [Example 23, (R,E)-(1-(5-(2-(6-(1H-imidazol-1-yl)pyridin-3-yl)vinyl)pyrimidin-2-yl)-4-(pyrazin-2-yl)piperazin-2-yl)methanol] |
| 13333 | 0.9 | ≥ 12000 |  | COC[C@H]1CN(c2ccc(F)nc2)CCN1c1ncc(/C=C/c2ccc(-n3ccnc3)nc2)cn1 [Example 32, (R,E)-5-(2-(6-(1H-imidazol-1-yl)pyridin-3-yl)vinyl)-2-(4-(6-fluoropyridin-3-yl)-2-(methoxymethyl)piperazin-1-yl)pyrimidine] |
| 6667 |  | ≥ 12000 | 1.8 | OC[C@H]1CN(c2ccc(F)nc2)CCN1c1ncc(/C=C/c2ccc(-n3ccnc3)nc2)cn1 [Example 33, (R,E)-(1-(5-(2-(6-(1H-imidazol-1-yl)pyridin-3-yl)vinyl)pyrimidin-2-yl)-4-(6-fluoropyridin-3-yl)piperazin-2-yl)methanol] |
| 12000 | 0.94 | ≥ 12000 |  | FCCOC[C@H]1CN(c2ncc(/C=C/c3ccc(-c4cnco4)nc3)cn2)CCN1c1ncccn1 [Example 36, (R,E)-5-(5-(2-(2-(3-((2-fluoroethoxy)methyl)-4-(pyrimidin-2-yl)piperazin-1-yl)pyrimidin-5-yl)vinyl)pyridin-2-yl)oxazole] |

Continued, compound first:

| SMILES | Selectivity ratio (Assay 2/Assay 1) [1] | Ki [1, 3] [nM] | Ki [2] [nM] | Ki [1] [nM] |
| --- | --- | --- | --- | --- |
| COC[C@H]1CN(c2ncc(C#Cc3ccc(-n4ccnc4)nc3)cn2)CCN1c1ncccn1 [Example 11, (R)-5-((6-(1H-imidazol-1-yl)pyridin-3-yl)ethynyl)-2-(3-(methoxymethyl)-4-(pyrimidin-2-yl)piperazin-1-yl)pyrimidine] | 10909 | 1.1 | ≥ 12000 |  |
| COC[C@H]1CN(c2cc(F)ncn2)CCN1c1ncc(/C=C/c2ccc(-n3ccnc3)nc2)cn1 [Example 13, (R,E)-5-(2-(6-(1H-imidazol-1-yl)pyridin-3-yl)vinyl)-2-(4-(6-fluoropyrimidin-4-yl)-2-(methoxymethyl)piperazin-1-yl)pyrimidine] | 12000 | 1 | ≥ 12000 |  |
| COC[C@H]1CN(c2cc(Cl)ncn2)CCN1c1ncc(/C=C/c2ccc(-n3ccnc3)nc2)cn1 [Example 14, (R,E)-5-(2-(6-(1H-imidazol-1-yl)pyridin-3-yl)vinyl)-2-(4-(6-chloropyrimidin-4-yl)-2-(methoxymethyl)piperazin-1-yl)pyrimidine] | 9231 | 1.3 | ≥ 12000 |  |
| COC[C@H]1CN(c2cc(F)ccn2)CCN1c1ncc(/C=C/c2ccc(N3CCOCC3)nc2)cn1 [Example 16, (R,E)-4-(5-(2-(2-(4-(4-fluoropyridin-2-yl)-2-(methoxymethyl)piperazin-1-yl)pyrimidin-5-yl)vinyl)pyridin-2-yl)morpholine] | 281 | 1.6 | 450 |  |
| COC[C@H]1CN(c2ccccn2)CCN1c1ncc(/C=C/c2cnc3nc(C)cn3c2)cn1 [Example 19, (R,E)-6-(2-(2-(2-(methoxymethyl)-4-(pyridin-2-yl)piperazin-1-yl)pyrimidin-5-yl)vinyl)-2-methylimidazo[1,2-a]pyrimidine] | 8571 | 1.4 | ≥ 12000 |  |
| COC[C@H]1CN(c2ccccn2)CCN1c1ncc(/C=C/c2ccc(-c3ncco3)nc2)cn1 [Example 20, (R,E)-2-(5-(2-(2-(2-(methoxymethyl)-4-(pyridin-2-yl)piperazin-1-yl)pyrimidin-5-yl)vinyl)pyridin-2-yl)oxazole] | 7059 | 1.7 | ≥ 12000 |  |
| COC[C@H]1CN(c2cc3cnccn3c2)CCN1c1ncc(/C=C/c2ccc(-n3cccn3)nc2)cn1 [Example 21, (R,E)-7-(4-(5-(2-(6-(1H-pyrazol-1-yl)pyridin-3-yl)vinyl)pyrimidin-2-yl)-3-(methoxymethyl)piperazin-1-yl)pyrrolo[1,2-a]pyrazine] | 10000 |  | 13000 | 1.3 |
| OC[C@H]1CN(c2ccncn2)CCN1c1ncc(/C=C/c2ccc(-n3ccnc3)nc2)cn1 [Example 24, (R,E)-(1-(5-(2-(6-(1H-imidazol-1-yl)pyridin-3-yl)vinyl)pyrimidin-2-yl)-4-(pyrimidin-4-yl)piperazin-2-yl)methanol] | 240 | 0.5 | 120 |  |
| COC[C@H]1CN(c2ncc(C)cn2)CCN1c1ncc(/C=C/c2ccc(-n3ccnc3)nc2)cn1 [Example 25, (R,E)-5-(2-(6-(1H-imidazol-1-yl)pyridin-3-yl)vinyl)-2-(2-(methoxymethyl)-4-(5-methylpyrimidin-2-yl)piperazin-1-yl)pyrimidine] | 400 | 0.9 | 360 |  |
| COC[C@H]1CN(c2ccccn2)CCN1c1ncc(/C=C/c2ccc(-c3cnco3)nc2)cn1 [Example 26, (R,E)-5-(5-(2-(2-(2-(methoxymethyl)-4-(pyridin-2-yl)piperazin-1-yl)pyrimidin-5-yl)vinyl)pyridin-2-yl)oxazole] | 3871 | 3.1 | ≥ 12000 |  |
| COC[C@H]1CN(c2ncc(/C=C/c3ccc(-n4ccnc4)nc3)cn2)CCN1c1ncc(F)cn1 [Example 27, (R,E)-5-(2-(6-(1H-imidazol-1-yl)pyridin-3-yl)vinyl)-2-(4-(5-fluoropyrimidin-2-yl)-3-(methoxymethyl)piperazin-1-yl)pyrimidine] | 44 | 1.8 | 80 |  |
| COC[C@H]1CN(c2ccnc(F)c2)CCN1c1ncc(/C=C/c2ccc(-n3ccnc3)nc2)cn1 [Example 29, (R,E)-5-(2-(6-(1H-imidazol-1-yl)pyridin-3-yl)vinyl)-2-(4-(2-fluoropyridin-4-yl)-2-(methoxymethyl)piperazin-1-yl)pyrimidine] | 180 | 1 | 180 |  |
| FCCOC[C@H]1CN(c2ncccn2)CCN1c1ncc(/C=C/c2ccc(-n3ccnc3)nc2)cn1 [Example 30, (R,E)-5-(2-(6-(1H-imidazol-1-yl)pyridin-3-yl)vinyl)-2-(2-((2-fluoroethoxy)methyl)-4-(pyrimidin-2-yl)piperazin-1-yl)pyrimidine] | 12000 | 1 | ≥ 12000 |  |
| FCCOC[C@H]1CN(c2ccncc2)CCN1c1ncc(/C=C/c2ccc(-n3ccnc3)nc2)cn1 [Example 31, (R,E)-5-(2-(6-(1H-imidazol-1-yl)pyridin-3-yl)vinyl)-2-(2-((2-fluoroethoxy)methyl)-4-(pyridin-4-yl)piperazin-1-yl)pyrimidine] | 2600 | 0.5 | 1300 |  |
| COC[C@H]1CN(c2ncc(/C=C/c3ccc(-n4ccnc4)nc3)cn2)CCN1c1ccnc(F)n1 [Example 34, (R,E)-4-(4-(5-(2-(6-(1H-imidazol-1-yl)pyridin-3-yl)vinyl)pyrimidin-2-yl)-2-(methoxymethyl)piperazin-1-yl)-2-fluoropyrimidine] | 6667 | 1.8 | ≥ 12000 |  |
| COC[C@H]1CN(c2ncc(/C=C/c3ccc(-c4cnn(CCF)c4)nc3)cn2)CCN1c1ncccn1 [Example 37, (R,E)-5-(2-(6-(1-(2-fluoroethyl)-1H-pyrazol-4-yl)pyridin-3-yl)vinyl)-2-(3-(methoxymethyl)-4-(pyrimidin-2-yl)piperazin-1-yl)pyrimidine] | 1935 | 0.62 | ≥ 1200 |  |
| FCCOCCOC[C@H]1CN(c2ncc(/C=C/c3ccc(-c4cnco4)nc3)cn2)CCN1c1ncncn1 [Example 38, (R,E)-5-(5-(2-(2-(3-((2-(2-fluoroethoxy)ethoxy)methyl)-4-(1,3,5-triazin-2-yl)piperazin-1-yl)pyrimidin-5-yl)vinyl)pyridin-2-yl)oxazole] | 600 | 2 | ≥ 1200 |  |

From patent publication US20260224758A1, “ALPHA-SYNUCLEIN BINDERS AND METHODS OF USE” (Merck Sharp & Dohme LLC, priority 2023, published 2026)
